According to publication PMC9525908, “α-Crystallin chaperone mimetic drugs inhibit lens γ-crystallin aggregation: Potential role for cataract prevention” (The Journal of Biological Chemistry, 2022):
Changes are numbered by the printed parent chain. Values joined by “and” are separate entries in the source; they are usually repeats but may differ in a detail not shown here. Identical values can stand only once. Like-named read-outs stand apart in the source and are kept apart here.

Tests used:
OPJ-MγS [1] = biological target: T1, OPJ-MγS (Mus musculus, UniProt O35486, F10S); assay: Dynamic light scattering, OPJ-MγS; assay type: biochemical; conditions: 400 μM drug; for Percent Mass Peak 1 / Radius (nm) Peak 1 / Percent Mass Peak 2 / Radius (nm) Peak 2: OPJ-MγS 45 μM, 72 °C 20 min; for Suppression of aggregate formation, DLS temperature scan: OPJ-MγS, 30–90 °C
T1 construct: made in house; host or cells: E. coli BL21(DE3) pLysS, pET17b vector
T1 sequence (O35486 1-178 F10S): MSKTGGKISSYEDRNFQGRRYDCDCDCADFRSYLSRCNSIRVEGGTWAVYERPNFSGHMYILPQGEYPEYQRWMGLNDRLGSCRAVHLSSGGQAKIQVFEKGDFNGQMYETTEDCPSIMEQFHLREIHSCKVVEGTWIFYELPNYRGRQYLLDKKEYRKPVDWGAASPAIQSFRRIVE
Protocol: Efficacy of our selected drugs in preventing the formation of protein aggregates was measured by DLS. Measurements were performed on a Wyatt DynaPro Nanostar. For DLS temperature scan experiment, pure and filtered protein samples (1 mg/ml in 10 mM sodium phosphate buffer, pH 7.2) with and without drugs (400 μM) were analyzed by DLS over a temperature range of 30 to 90 °C. Multiple scans were run for every data point, and the results represent average of individual scans. DLS spectra were also recorded for the samples at the end point of turbidity assay.

OPJ-MγS [2] = biological target: T1, OPJ-MγS; assay: bis-ANS binding study, OPJ-MγS; conditions: 10 μM protein, 100 μM drug; read-out: Percent inhibition of binding of bis-ANS, OPJ-MγS
Protocol: (§1) Extrinsic fluorescence spectra were recorded using bis-ANS, a well-known surface hydrophobicity probe. The spectra were recorded between 400 and 600 nm after exciting at 390 nm. The experiment was performed on 10 μM of HγD and MγS in 50 mM K3PO4 buffer with and without our candidate drugs (100 μM). Bis-ANS stock solution was prepared in methanol whose final percentage was maintained below 7 after mixing with proteins ([81]).

OPJ-MγS [3] = biological target: T1, OPJ-MγS; assay: End-point heat-mediated turbidity assay, OPJ-MγS; assay type: biochemical; conditions: read-out: Percent Inhibition of heat mediated aggregation, OPJ-MGS
Protocol: Absorbance was measured at 600 nm with a SpectraMax iD5 (Molecular Devices).
Aggregation kinetics assays at 600 nm in the presence of varying concentrations (0, 100, 200, 300, 400, and 500 μM) of our selected drugs were also performed on mutants of HγD (W43R, W42Q, R14C, and R58H) and MγS (F9S) at a concentration of 1 mg/ml in 50 mM K3PO4 buffer (pH 7.2) in a total volume of 100 μl. WT-HγD and WT-MγS crystallin served as controls for their respective mutant versions. […] Absorbance was monitored every 10 min. […] All the experiments were run in duplicates or triplicates.

Bovine γ-crystallins = assay: Thermal aggregation (72 °C) turbidity assay, bovine γ-crystallins (pool 4); assay type: biochemical; conditions: for Thermal denaturation inhibitory activity in subscreen: 150 μM; for Thermal denaturation inhibitory activity in subscreen / % Suppression: 72 °C 20 min; for Effect on BGC aggregation at lower protein concentrations / Effect on absorbance of BGC at 2.0 mg/ml: 400 μM drug, 72 °C, 10 and 20 min; for % Suppression: 75 μM protein, 125 μM or less inhibitor (1.7:1)
Protocol: Candidate compounds were rescreened using thermal denaturation upon heating at 72 °C for 20 min according to Chen et al. ([36]) in order to select for compounds with chaperone rather than antioxidant activity since a large number of the latter already exist in the cataract field ([37]).
(§2) For a review, see the study by Roskamp et al. ([38]). […] For the mechanistic studies below these two compounds together with either drug M, chosen mostly as negative control, or the entire set of six compounds were used for comparison purpose, whereby the words “drug” or “compound” are used interchangeably in the studies later.
All assays were carried out manually in CORNING #9017 Costar Assay 96-well plates. Wells were filled with 90 μl calf γ-crystallin-rich protein solution (pool 4 at 2 mg/ml) followed by 0.5 to 5.0 μl of drug (all 10 mM stock solution in DMSO) as supplied by the manufacturer and 10 μl H2O2 (450 mM stock solution in water) and sealed with sticky Applied Biosystems MicroAmp Clear Adhesive films (Life Technologies). Control wells received DMSO only. Plates were shaken for 2 min and incubated from 24 to 72 h in a culture room at 37 °C. […] A second reading was performed following a heat shock of 20 min at 72 °C as described by Chen et al. ([36]) in order to capture drugs with heat-resistant chaperone activity. In order to quantitate the impact of the drugs on aggregation, a fitness plot was created (Fig. 1 C) that allowed us to identify wells with enhanced/worsening versus suppressed crystallin aggregation. In addition, aggregation in each well was also visually assessed by two independent “blinded” readers for the ability to read fine print through each well by placing the plates over small font text (Fig. 1D). Both machine and visual readouts were reconciled in order to increase robustness.
Final DMSO concentration was 5% including in control samples. Microtiter plates were first incubated for 10 min at 72 °C and reincubated for 10 more min. Absorbance was measured at both 10 and 20 min total incubation time.

WT-MγS = biological target: T2, WT-MγS (Mus musculus, UniProt O35486); assay: bis-ANS binding study, WT-MγS; conditions: read-out: Percent inhibition of binding of bis-ANS, WT-MγS
T2 construct: made in house; host or cells: E. coli BL21(DE3) pLysS, pET17b vector
T2 sequence (O35486 1-178): T1 sequence (O35486 1-178 F10S) with S10F
Protocol: as §1

HγS = biological target: T3, HγS (Homo sapiens, UniProt P22914); assay: Thermal aggregation (72 °C, 20 min) turbidity assay, HγS; assay type: biochemical; conditions: 20 min, read-out: % Suppression; for inhibition: HγS, 75 μM protein, 72 °C 20 min
T3 sequence (P22914 1-178): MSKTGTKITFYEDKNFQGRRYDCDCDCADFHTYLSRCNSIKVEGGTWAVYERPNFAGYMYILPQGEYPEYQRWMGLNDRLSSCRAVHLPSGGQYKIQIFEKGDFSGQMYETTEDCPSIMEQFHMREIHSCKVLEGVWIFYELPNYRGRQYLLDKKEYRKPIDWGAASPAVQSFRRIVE
Text: as §2

[4] = tested on: γ-crystallins (bovine, HγD and HγS crystallins); assay: Mean aggregation suppression across all γ-crystallins tested; assay type: biochemical; set-up: concentration or dose not given beside the values; conditions: mean of all experiments in Table 2 (n=9)
Text: as §2
Table S 4: List of primers used for making WT -HγD mutants

HγS_N14/76/143D = biological target: T4, HγS_N14/76/143D (Homo sapiens, UniProt P22914, N144D/N15D/N77D); assay: Thermal aggregation (72 °C, 20 min) turbidity assay, HγS triple mutant; assay type: biochemical; conditions: read-out: % Suppression; for inhibition: HγS_N14/76/143D, 75 μM protein, 72 °C 20 min
T4 sequence (P22914 1-178 N15D/N77D/N144D): T3 sequence (P22914 1-178) with N15D, N77D, N144D
Text: as §2

[5] = Bovine γ-crystallins experiment 1
[6] = Bovine γ-crystallins experiment 2
[7] = 500 μM drug, end point of turbidity assay 72 °C 20 min

SMILES | Percent Mass Peak 1 (OPJ-MγS [1]) | Radius (nm) Peak 1 (OPJ-MγS [1]) | Suppression of aggregate formation, DLS temperature scan (OPJ-MγS [1]) | inhibition at 100 µM (OPJ-MγS [2]) | inhibition at 500 µM (OPJ-MγS [3]) | Thermal denaturation inhibitory activity in subscreen (Bovine γ-crystallins) | Effect on BGC aggregation at lower protein concentrations (Bovine γ-crystallins) | Effect on absorbance of BGC at 2.0 mg/ml (Bovine γ-crystallins) | % Suppression (Bovine γ-crystallins; [5]) | % Suppression (Bovine γ-crystallins; [6]) | inhibition at 100 µM (WT-MγS) | inhibition at 125 µM (HγS) | Mean % suppression / inhibition of γ-crystallin aggregation against thermal denaturation [4] | inhibition at 125 µM (HγS_N14/76/143D) | Percent Mass Peak 2 (OPJ-MγS [1]) | Radius (nm) Peak 2 (OPJ-MγS [1]) | inhibition at 500 µM (OPJ-MγS [3]; [7]) | inhibition at 100 µM (WT-MγS; 10 μM protein, 100 μM drug) | inhibition (HγS) | inhibition (HγS_N14/76/143D)
CC(C)=CCC[C@]1(C)C=Cc2c(O)c3c(c(CC=C(C)C)c2O1)O[C@]12C(=C[C@@H]4C[C@H]1C(C)(C)O[C@@]2(C/C=C(/C)C(=O)O)C4=O)C3=O [drug G, Gambogic acid] | 100% | 79.3 nm | strong suppressive effects | 31.62 ± 0.00057% | 91.6 ± 0.09% | thermal denaturation inhibitory activity | stimulated aggregation | reproducibly suppressed absorbance | 48% | 75% | 40.72 ± 0.0008% | 46% | 64% and 64.2% | 89% | – | – | – | – | – | –
O=C(O)CCCCCCCCCCCC[C@@H]1C=CCC1 [drug M, Chaulmoogric acid] | 0% | 53.1 nm | no suppression | 3.48 ± 0.001% | – | thermal denaturation inhibitory activity | – | – | 40% | 16% | – | – | 42% and 42.2% | – | 100% | 5594.1 nm | 33.6 ± 2.36% | 1.95 ± 0.0017% | 39% | 46%
COC(=O)/C=C/C(C)=C\C=C\C(C)=C\C=C\C=C(C)\C=C\C=C(C)\C=C\C(=O)O [drug B, Bixin] | – | – | mild suppressive effects | 11.83 ± 0.00091% | – | thermal denaturation inhibitory activity | – | – | 23% | 54% | – | – | 49% and 48.8% | – | – | – | 77.6 ± 0.21% | 11.94 ± 0.0018% | 60% | 46%
CC(C)=CCCC1(C)C=Cc2c(O)c3c(c(CC=C(C)C)c2O1)OC12C(=CC4CC1C(C)(C)OC2(C/C=C(/C)C(=O)O)C4O)C3=O (centres unmarked) [drug D, dihydrogambogic acid] | – | – | mild suppressive effects | 7.76 ± 0.00097% | 85.1 ± 0.68% | thermal denaturation inhibitory activity | – | – | 40% | 44% | 19.49 ± 0.0018% | 61% | 54% | 32% | – | – | – | – | – | –
Oc1c(Cl)cc(Cl)c(Cl)c1Cc1c(O)c(Cl)cc(Cl)c1Cl [drug X, Hexachlorophene] | – | – | mild suppressive effects | 2.45 ± 0.00075% | 60.9 ± 0.8% | thermal denaturation inhibitory activity | – | – | 30% | 55% | 10.17 ± 0.0014% | 68% | 56% and 55.8% | 71% | – | – | – | – | – | –
Cc1cc(C(C#N)c2ccc(Cl)cc2)c(Cl)cc1NC(=O)c1cc(I)cc(I)c1O (centres unmarked) [drug C, Closantel] | 32% | 21.9 nm | strong suppressive effects | 20.28 ± 0.00089% | 82 ± 0.49% | thermal denaturation inhibitory activity | stimulated aggregation | reproducibly suppressed absorbance | 60% | 73% | 27.16 ± 0.0011% | 71% | 69% and 68.6% | 76% | 68% | 358.7 nm | – | – | – | –
